# US6451854B1, “α-amino acid phenyl ester derivatives” (Akzo Nobel N.V., priority 1998, dated 2002)
# Where a name gives a salt, the structure may show the parent alone.
# What was measured:
# mice = assay: hypnotic activity: loss of righting reflex after intravenous administration in mice; type: in vivo; details: dose causing loss of righting reflex for minimum 30 seconds in 50% of mice, intravenous injection over 10 seconds; for ED50: Mus musculus, iv, read-out: HD50 (the source's name)
# Protocol: The hypnotic potency of the α-amino acid phenyl ester derivatives of the invention was determined upon their intravenous administration in mice. The dose required to cause a loss of righting reflex for a minimum period of 30 seconds in 50% of treated mice after intravenous injection over 10 seconds was determined. This dose is termed the HD50 (hypnotic dose50) and is expressed in μmol.kg^−1.
# GABAA receptors = assay: inhibition of [35S]-TBPS binding to rat whole brain membranes; details: concentration required to inhibit 50% of [35S]-TBPS binding
# Text: γ-Aminobutyric acid (GABA) is the major inhibitory neurotransmitter within the central nervous system and it is probable that compounds potentiating the effects of GABA at GABAA receptors will induce anaesthesia (S. A. Zimmerman, M. V. Jones and N. L. Harrison, J. Pharmacol. Exp. Therap. 1994, 270, 987-991; N. P. Franks and W. R. Lieb, Nature 1994, 367, 607-614). Indeed there is compelling evidence that many hypnotics exert their biological activity via modulation of GABAA receptors, including steroids, barbiturates, benzodiazepines and propofol (D. L. Tanelian, P. Kosek, I. Mody and M. B. Maclver, Anesthesiology 1993, 78, 757-776).
# The in vitro effect of the compounds of the invention at GABAA receptors was assessed through determination of their ability to inhibit [^35S]-TBPS ([^35S]-tert-butyl bicyclophosphorothionate) binding to rat whole brain membranes. The concentration of α-amino acid phenyl ester derivative required to inhibit 50% of binding of [^35S]-TBPS was determined. These in vitro experiments were carried out as described in detail by Anderson et al., J.Med.Chem. 1997, 40, 1668-1681.
Compound,HD50 (mice),ED50 (mice) [µmol/kg],IC50 (GABAA receptors) [µM]
"CCCCC(C(=O)Oc1c(OC)cccc1OC)N(CCOC)CCOC.Cl (racemic) [Example 7ad, (±)-2-[N-bis(2-methoxyethyl)amino]hexanoic acid, 2,6-dimethoxyphenyl ester hydrochloride (1:1) salt]",<12 µmol/kg,–,–
"CCC(C(=O)Oc1c(OC)cccc1OC)N(CC(C)OC)CC(C)OC.Cl (racemic) [Example 7ae, (±)-2-[N-bis(2-methoxypropyl)amino]butyric acid, 2,6-dimethoxyphenyl ester hydrochloride (1:1) salt]",27 µmol/kg,–,–
"CCCC(C(=O)Oc1c(OC)cc(C)cc1OC)N(CCOC)CCOC.Cl (racemic) [Example 7af, (±)-2-[N-bis(2-methoxyethyl)amino]pentanoic acid, 2,6-dimethoxy-4-methylphenyl ester hydrochloride (1:1) salt]",34 µmol/kg,–,–
"CCCCC(C(=O)Oc1c(OC)cc(C)cc1OC)N(CCOC)CCOC.Cl (racemic) [Example 7ag, (±)-2-[N-bis(2-methoxyethyl)amino]hexanoic acid, 2,6-dimethoxy-4-methylphenyl ester hydrochloride (1:1) salt]",34 µmol/kg,–,–
"COCCN(CCOC)C(CC(C)C)C(=O)Oc1c(OC)cc(C)cc1OC.Cl (racemic) [Example 7aj, (±)-2-[N-bis(2-methoxyethyl)amino]4-methylpentanoic acid, 2,6-dimethoxy-4-methylphenylester hydrochloride (1:1) salt]",convulsant,–,–
"COCCN(C)C(CC(C)C)C(=O)Oc1c(OC)cc(C)cc1OC.Cl (racemic) [Example 7ak, (±)-2-[N-(2-methoxyethyl)-N-methylamino]-4-methylpentanoic acid, 2,6-dimethoxy-4-methylphenylester hydrochloride (1:1) salt]",28 µmol/kg,–,–
"CCC(C(=O)Oc1c(OC)cc(C)cc1OC)N(CCOC)CCOC (racemic) [Example 7b, (±)-2-[N-bis(2-methoxyethyl)amino]butyric acid, 2,6-dimethoxy-4-methylphenyl ester hydrochloride (1:1) salt]",–,22,18
"CCC(C(=O)Oc1c(OC)cccc1OC)N(CCOC)CCOC (racemic) [Example 7c, (±)-2-[N-bis(2-methoxyethyl)amino]butyric acid, 2,6-dimethoxyphenyl ester hydrochloride (1:1) salt]",–,19,10
"CCOCCN(CCOCC)C(C)C(=O)Oc1c(OC)cccc1OC (racemic) [Example 7d, (±)-2-[N-bis(2-ethoxyethyl)amino]propionic acid, 2,6-dimethoxyphenyl ester hydrochloride (1:1) salt]",–,68,≤ 100
"COCCN(CCOC)C(C)C(=O)Oc1c(OC)cc(C)cc1OC (racemic) [Example 7e, (±)-2-[N-bis(2-methoxyethyl)amino]propionic acid, 2,6-dimethoxy-4-methylphenyl ester hydrochloride (1:1) salt]",–,52,< 100
"COCCN(CCOC)C(C)C(=O)Oc1c(OC)cccc1OC (racemic) [Example 7f, (±)-2-[N-bis(2-methoxyethyl)amino]propionic acid, 2,6-dimethoxyphenyl ester hydrochloride (1:1) salt]",–,55,< 100
"COc1cc(C)cc(OC)c1OC(=O)C(C)N(C)Cc1ccccc1 (racemic) [Example 7g, (±)-2-[N-methylbenzylamino]propionic acid, 2,6-dimethoxy-4-methylphenyl ester hydrochloride (1:1) salt]",–,45,22
"CCN(CC)C(C)C(=O)Oc1c(OC)cc(C)cc1OC (racemic) [Example 7j, (±)-2-[diethylamino]propionic acid, 2,6-dimethoxy-4-methylphenyl ester hydrochloride (1:1) salt]",–,43,< 50
"CCC(C(=O)Oc1c(OC)cccc1OC)N(C)Cc1ccccc1 (racemic) [Example 7k, (±)-2-[N-methylbenzylamino]butyric acid, 2,6-dimethoxyphenyl ester hydrochloride (1:1) salt]",–,40,13
"CCOCCN(CCOCC)C(CC)C(=O)Oc1c(OC)cccc1OC (racemic) [Example 7l, (±)-2-[N-bis(2-ethoxyethyl)amino]butyric acid, 2,6-dimethoxyphenyl ester hydrochloride (1:1) salt]",–,–,~100
"CCOc1cccc(OCC)c1OC(=O)C(CC)N(CCOC)CCOC (racemic) [Example 7n, (±)-2-[N-bis(2-methoxyethyl)amino]butyric acid, 2,6-diethoxyphenyl ester hydrochloride (1:1) salt]",–,27,20
"CCC(C(=O)Oc1c(OC(C)C)cccc1OC(C)C)N(CCOC)CCOC (racemic) [Example 7o, (±)-2-[N-bis(2-methoxyethyl)amino]butyric acid, 2,6-di-(1-methyl)ethoxyphenyl ester hydrochloride (1:1) salt]",–,64,< 100
"CCCC(C(=O)Oc1c(OC)cccc1OC)N(CCOC)CCOC (racemic) [Example 7s, (±)-2-[N-bis(2-methoxyethyl)amino]pentanoic acid, 2,6-dimethoxyphenyl ester hydrochloride (1:1) salt]",–,12,4.2
"CCC(C(=O)Oc1c(OC)cc(OC)cc1OC)N(CCOC)CCOC (racemic) [Example 7t, (±)-2-[N-bis(2-methoxyethyl)amino]butyric acid, 2,4,6-trimethoxyphenyl ester hydrochloride (1:1) salt]",–,21,14
"COCCN(CCOC)C(C(=O)Oc1c(OC)cccc1OC)C(C)C (racemic) [Example 7u, (±)-3-methyl-2-[N-bis(2-methoxyethyl)amino]butyric acid, 2,6-dimethoxyphenyl ester hydrochloride (1:1) salt]",–,27,100
"CCOCCN(CCOCC)C(C)C(=O)Oc1c(OC)cccc1OC (single isomer, unassigned; (+)) [Example 7w, (+)-2-[N-bis(2-ethoxyethyl)amino]propionic acid, 2,6-dimethoxyphenyl ester hydrochloride (1:1) salt]",35 µmol/kg,–,~100
"CCOCCN(CCOCC)C(C)C(=O)Oc1c(OC)cccc1OC (single isomer, unassigned; (-)) [Example 7x, (−)-2-[N-bis(2-ethoxyethyl)amino]propionic acid, 2,6-dimethoxyphenyl ester hydrochloride (1:1) salt]",46 µmol/kg,–,< 100
"CCCCC(C(=O)Oc1c(OC)cccc1OC)N(CCOC)CCOC.Cl (stereo not shown) [Example 7ah, ξ-2-[N-bis(2-methoxyethyl)amino]hexanoic acid, 2,6-dimethoxyphenyl ester hydrochloride (1:1) salt]",8 µmol/kg,–,–
"CCCCC(C(=O)Oc1c(OC)cccc1OC)N(CCOC)CCOC.Cl (stereo not shown) [Example 7ai, ξ-2-[N-bis(2-methoxyethyl)amino]hexanoic acid, 2,6-dimethoxyphenyl ester hydrochloride (1:1) salt]",47 µmol/kg,–,–
"(±)-2-[N-bis(2-methoxyethyl amino]-3-methylbutyric acid, 2,6-dimethoxy-4-methylphenylester hydrochloride (1:1) salt [Example 7al]",44 µmol/kg,–,–
